The values that follow are results of earlier work, collected in patent publication US20150182489A1, “GOLD (III) COMPOUNDS AND USE FOR TREATING CANCER” (King Abdulaziz City for Science and Technology, priority 2013, published 2015).

Like-named read-outs stand apart in the source and are kept apart here.

Consider `N.N.[Cl][Pt][Cl]` [cisplatin, cis-diamminedichloroplatinum(II)], for which the hepatic histopathology result in the series on rats liver (10 mg/kg (Avci et al)) is “sinusoidal congestion, hydropic and vacuolar degeneration, extensive disorganization in hepatocytes, and significant fibrosis around central venules and expanded periportal areas”; in the series with rats liver (single intraperitoneal 6.5 mg/kg dose (Kart et al)), “moderate to severe hydropic degeneration in centrilobular zones extending towards the portal region”. Besides, the renal histopathology entry in the series on rats (rats, 0.4 mg/kg intraperitoneally for 8 weeks (Ravindra et al)) is “marked proximal tubular dilation and desquamation along with acute tubular necrosis”; with rats (rats, 15 mg/kg of body weight intraperitoneally (Hanigan et al)), “grade 4 tubular necrosis”; in the series with rats (single intraperitoneal dose of 7.5 mg/kg (Atasayara et al)), “remarkable epithelial vacuolation, necrosis, and desquamation of cells with protein casts in renal tubules”.

`COc1cccc2c1C(=O)c1c(O)c3c(c(O)c1C2=O)C[C@@](O)(C(=O)CO)C[C@@H]3O[C@H]1C[C@H](N)[C@H](O)[C@H](C)O1` [doxorubicin]: the “hepatotoxicity relative to 5-FU treatment” value with rats liver (rats liver (El-Sayyad et al)) is recorded as “increased hepatoxicity in comparison to 5-FU treatment”.
